Assay results: US20250340739A1 ([…] SOLUTIONS, priority 2022, published 2025)
Like-named read-outs stand apart in the source and are kept apart here.

Conditions: solid state
[1] = amber type II glass, away from light, t0, % area HPLC 240 nm
[2] = amber glass, away from light, t = 1 month
[3] = amber glass, away from light, t = 2 months
[4] = amber glass, away from light, t = 6 months
[5] = amber glass, away from light, t = 5 month
[6] = amber glass, away from light, t = 4 months

Description: The elution is carried out by gradient. The mobile phase consists of ammonium formiate buffer 100 mM pH 4.5 (eluent A) and acetonitrile (eluent B). The composition of the mobile phase was modified continuously during the elution process according to the following Table II:

Row | SMILES | ICG purity (HPLC) [1] | Total impurities (HPLC) [1] | ICG purity (HPLC) (t = 8 weeks) | Total impurities (HPLC) (t = 8 weeks) | also measured
1 | CC1(C)C(/C=C/C=C/C=C/C=C2\N(CCCCS(=O)(=O)[O-])c3ccc4ccccc4c3C2(C)C)=[N+](CCCCS(=O)(=O)[O-])c2ccc3ccccc3c21.[Na+] [NaOEt, Indocyanine green] | 99.58% | 0.42% | 99.34% | 0.66% | –
2 | CC1(C)C(/C=C/C=C/C=C/C=C2\N(CCCCS(=O)(=O)[O-])c3ccc4ccccc4c3C2(C)C)=[N+](CCCCS(=O)(=O)[O-])c2ccc3ccccc3c21.[Na+] [NaOAc, Indocyanine green] | 99.95% | 0.05% | 99.65% | 0.35% | –
3 | CC1(C)C(/C=C/C=C/C=C/C=C2\N(CCCCS(=O)(=O)[O-])c3ccc4ccccc4c3C2(C)C)=[N+](CCCCS(=O)(=O)[O-])c2ccc3ccccc3c21.[Na+] [Example 2, Indocyanine green] | 99.21% | 0.79% | – | – | ICG purity (HPLC) [2]: 99.25%; Total impurities (HPLC) [2]: 0.75%; ICG purity (HPLC) [3]: 99.09%; Total impurities (HPLC) [3]: 0.91%; ICG purity (HPLC) [4]: 99.03%; Total impurities (HPLC) [4]: 0.97%
4 | CC1(C)C(/C=C/C=C/C=C/C=C2\N(CCCCS(=O)(=O)[O-])c3ccc4ccccc4c3C2(C)C)=[N+](CCCCS(=O)(=O)[O-])c2ccc3ccccc3c21.[Na+] [NaOAsc, Indocyanine green] | 99.95% | 0.05% | 99.72% | 0.28% | –
5 | CC1(C)C(/C=C/C=C/C=C/C=C2\N(CCCCS(=O)(=O)[O-])c3ccc4ccccc4c3C2(C)C)=[N+](CCCCS(=O)(=O)[O-])c2ccc3ccccc3c21.[Na+] [NaBr, Indocyanine green] | 99.95% | 0.05% | – | – | ICG purity (HPLC) (t = 4 weeks): 99.84%; Total impurities (HPLC) (t = 4 weeks): 0.16%
6 | CC1(C)C(/C=C/C=C/C=C/C=C2\N(CCCCS(=O)(=O)[O-])c3ccc4ccccc4c3C2(C)C)=[N+](CCCCS(=O)(=O)[O-])c2ccc3ccccc3c21.[Na+] [Example 3, Indocyanine green] | 98.60% | 1.40% | – | – | ICG purity (HPLC) [2]: 98.39%; Total impurities (HPLC) [2]: 1.61%; ICG purity (HPLC) [5]: 97.95%; Total impurities (HPLC) [5]: 2.05%
7 | CC1(C)C(/C=C/C=C/C=C/C=C2\N(CCCCS(=O)(=O)[O-])c3ccc4ccccc4c3C2(C)C)=[N+](CCCCS(=O)(=O)[O-])c2ccc3ccccc3c21.[Na+] [Example 4, Indocyanine green] | 95.98% | 4.02% | – | – | ICG purity (HPLC) [6]: 94.11%; Total impurities (HPLC) [6]: 5.89%
